22 molecules from PubChem BioAssay AID330 (DTP/NCI, 2004) can be followed below.

Values joined by “and” are separate entries in the source; they are usually repeats but may differ in a detail not shown here. Equal entries are not always repeated. Inconclusive results and toxic doses are left out.

The subject of the assay is P388 leukemia ip, CD2F1 mice, survival T/C. Briefly: NCI In Vivo Anticancer Drug Screen. Data for tumor model P388 Leukemia (intraperitoneal) in CD2F1 (CDF1) mice. To be noted: endpoint: median survival time, higher = longer survival. Summed up:
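Mice carrying the transplanted tumor received test compound or vehicle. Survival was recorded in each group, and the value is the treated-group measurement divided by that of the vehicle-treated control group.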

Where [1] appears, read: dose: 50.0 mg/kg/injection, schedule: Q01DX009 (ip), vehicle: saline with Tween-80.
The mark [2] stands for this setting: dose: 100.0 mg/kg/injection, schedule: Q01DX009 (ip), vehicle: saline with Tween-80.
Where [3] appears, read: dose: 100.0 mg/kg/injection, schedule: Q01DX005 (ip), vehicle: Klucel (hydroxypropylcellulose) (HPC).
The mark [4] stands for this setting: dose: 200.0 mg/kg/injection, schedule: Q01DX005 (ip), vehicle: Klucel (hydroxypropylcellulose) (HPC).
Setting [5] is: dose: 12.5 mg/kg/injection, schedule: Q01DX005 (ip), vehicle: Klucel (hydroxypropylcellulose) (HPC).
Where [6] appears, read: dose: 25.0 mg/kg/injection, schedule: Q01DX005 (ip), vehicle: Klucel (hydroxypropylcellulose) (HPC).
Setting [7] is: dose: 50.0 mg/kg/injection, schedule: Q01DX005 (ip), vehicle: Klucel (hydroxypropylcellulose) (HPC).
The mark [8] stands for this setting: dose: 100.0 mg/kg/injection, schedule: Q04DX003 (ip), vehicle: saline with Tween-80.
Where [9] appears, read: dose: 200.0 mg/kg/injection, schedule: Q04DX003 (ip), vehicle: saline with Tween-80.
Where [10] appears, read: dose: 100.0 mg/kg/injection, schedule: Q01DX001 (ip), vehicle: saline with Tween-80.
[11] abbreviates: dose: 200.0 mg/kg/injection, schedule: Q01DX001 (ip), vehicle: saline with Tween-80.
Setting [12] is: dose: 400.0 mg/kg/injection, schedule: Q01DX001 (ip), vehicle: saline with Tween-80.
Setting [13] is: dose: 50.0 mg/kg/injection, schedule: Q01DX005 (ip), vehicle: distilled water + Tween-80.
Where [14] appears, read: dose: 100.0 mg/kg/injection, schedule: Q01DX005 (ip), vehicle: distilled water + Tween-80.
Setting [15] is: dose: 240.0 mg/kg/injection, schedule: Q01DX005 (ip), vehicle: Klucel (hydroxypropylcellulose) (HPC).

For the molecule `CCN(N=Nc1ccc(OC)cc1)c1ccc(OC)cc1`, the T/C is 103 % of control and 96 % of control (dose: 12.5 mg/kg/injection, schedule: Q01DX009 (ip), vehicle: saline with Tween-80); 108 % of control and 109 % of control (dose: 25.0 mg/kg/injection, schedule: Q01DX009 (ip), vehicle: saline with Tween-80); 116 % of control and 117 % of control under setting [1]; 100 % of control and 124 % of control under setting [2].
As to `COP(=O)(O)Oc1ccccc1` (tested in a mixture with another compound), the T/C (dose: 50.0 mg/kg/injection, schedule: Q01DX009 (ip), vehicle: saline) is 101 % of control; the T/C (dose: 100.0 mg/kg/injection, schedule: Q01DX009 (ip), vehicle: saline) is 100 % of control; the T/C (dose: 200.0 mg/kg/injection, schedule: Q01DX009 (ip), vehicle: saline) is 99 % of control.
Consider `CN(C)c1ccc(N=Nc2ccc3ccc4c(N=Nc5ccc(N(C)C)cc5)ccc5ccc2c3c54)cc1`, for which the T/C was 106 % of control (dose: 50.0 mg/kg/injection, schedule: Q01DX009 (ip), vehicle: Klucel (hydroxypropylcellulose) (HPC)); 103 % of control (dose: 100.0 mg/kg/injection, schedule: Q01DX009 (ip), vehicle: Klucel (hydroxypropylcellulose) (HPC)); 103 % of control (dose: 200.0 mg/kg/injection, schedule: Q01DX009 (ip), vehicle: Klucel (hydroxypropylcellulose) (HPC)).
With `[N-]=[N+]=CC(=O)C1(c2ccccc2)OC1c1ccc([N+](=O)[O-])cc1` (stereo not given), the T/C was 94 % of control (dose: 12.5 mg/kg/injection, schedule: Q01DX001 (ip), vehicle: saline with Tween-80); 93 % of control (dose: 25.0 mg/kg/injection, schedule: Q01DX001 (ip), vehicle: saline with Tween-80); 86 % of control and 95 % of control (dose: 50.0 mg/kg/injection, schedule: Q01DX001 (ip), vehicle: saline with Tween-80).
With `CCOC(=O)/C(C#N)=C\c1ccc(OCc2ccccc2)c(OCc2ccccc2)c1`, the T/C (dose: 12.5 mg/kg/injection, schedule: Q01DX005 (ip), vehicle: distilled water + alcohol) is 93 % of control; the T/C (dose: 25.0 mg/kg/injection, schedule: Q01DX005 (ip), vehicle: distilled water + alcohol) is 87 % of control; the T/C (dose: 50.0 mg/kg/injection, schedule: Q01DX005 (ip), vehicle: distilled water + alcohol) is 88 % of control; the T/C under setting [3] is 89 % of control; the T/C under setting [4] was 91 % of control.
`COC(=O)c1c(C(=O)Nc2ccccc2)c(-c2ccccc2)n(NC(N)=O)c1C`: the T/C is, setting by setting: (dose: 50.0 mg/kg/injection, schedule: Q01DX005 (ip), vehicle: saline with Tween-80) 112 % of control; (dose: 100.0 mg/kg/injection, schedule: Q01DX005 (ip), vehicle: saline with Tween-80) 107 % of control; (dose: 200.0 mg/kg/injection, schedule: Q01DX005 (ip), vehicle: saline with Tween-80) 104 % of control.
`BrC1CCCCC(Br)C12OCCO2` (stereo not given): the T/C by setting is: (dose: 100.0 mg/kg/injection, schedule: Q04DX003 (ip), vehicle: saline) 107 % of control; (dose: 200.0 mg/kg/injection, schedule: Q04DX003 (ip), vehicle: saline) 104 % of control; (dose: 400.0 mg/kg/injection, schedule: Q04DX003 (ip), vehicle: saline) 106 % of control.
In the case of `O=C(O)c1c(Cl)c(Cl)c(Cl)c(Cl)c1Cl`, the T/C under setting [2] is 95 % of control; the T/C (dose: 200.0 mg/kg/injection, schedule: Q01DX009 (ip), vehicle: saline with Tween-80) is 100 % of control; the T/C (dose: 400.0 mg/kg/injection, schedule: Q01DX009 (ip), vehicle: saline with Tween-80) is 113 % of control.
Regarding `COSc1ccccc1`, the T/C is, setting by setting: (dose: 100.0 mg/kg/injection, schedule: Q01DX001 (ip), vehicle: Klucel (hydroxypropylcellulose) (HPC)) 96 % of control; (dose: 200.0 mg/kg/injection, schedule: Q01DX001 (ip), vehicle: Klucel (hydroxypropylcellulose) (HPC)) 90 % of control; (dose: 400.0 mg/kg/injection, schedule: Q01DX001 (ip), vehicle: Klucel (hydroxypropylcellulose) (HPC)) 104 % of control.
Consider `CCCCOc1ccc2nc(C)cc(N/N=C/c3ccc(OC)c4ccccc34)c2c1`, for which the T/C under setting [5] is 94 % of control; the T/C under setting [6] was 94 % of control; the T/C under setting [7] is 89 % of control and 97 % of control.
In the case of `[S-]c1n[n+](-c2ccccc2)no1`, the T/C was 102 % of control (dose: 6.25 mg/kg/injection, schedule: Q01DX009 (ip), vehicle: distilled water + Tween-80) and 88 % of control (dose: 12.5 mg/kg/injection, schedule: Q01DX009 (ip), vehicle: distilled water + Tween-80).
In the case of `CCOC(=O)COc1cc2c(cc1Cc1ccc3c(c1)OCO3)OCO2`, the T/C runs as follows: under setting [5], 96 % of control; under setting [6], 96 % of control; under setting [7], 101 % of control; under setting [3], 98 % of control; under setting [4], 99 % of control.
Take `CCC[As](CCC)SCC1OC(OC(C)=O)C(OC(C)=O)C(OC(C)=O)C1OC(C)=O` (stereo not given): the T/C is 117 % of control under setting [1] and 110 % of control under setting [2].
With `O=C(c1ccccc1)C1CCCN(c2ccccc2)S1(=O)=O` (stereo not given), the T/C was 98 % of control under setting [8]; 104 % of control under setting [9]; 94 % of control (dose: 400.0 mg/kg/injection, schedule: Q04DX003 (ip), vehicle: saline with Tween-80).
`c1ccc(CN2CCCC3CCCC32)cc1` (stereo not given): the T/C under setting [10] is 97 % of control.
On to `Cc1ccn2c(=O)c(Br)c(C)nc2c1`, for which the T/C by setting is: under setting [10], 92 % of control; under setting [11], 94 % of control; under setting [12], 97 % of control.
In the case of `COc1ccc(S(=O)(=O)N/N=C/C(=O)O)cc1`, the T/C was 116 % of control (dose: 6.25 mg/kg/injection, schedule: Q01DX009 (ip), vehicle: other); 118 % of control (dose: 12.5 mg/kg/injection, schedule: Q01DX005 (ip), vehicle: saline with Tween-80); 162 % of control (dose: 25.0 mg/kg/injection, schedule: Q01DX009 (ip), vehicle: other); 154 % of control under setting [13]; 158 % of control and 159 % of control (dose: 50.0 mg/kg/injection, schedule: Q01DX009 (ip), vehicle: other); 182 % of control under setting [14].
Turning to `CCOC(=O)c1ccc(NC(=O)N(C2CCCCC2)C2CCCCC2)cc1`, the T/C is, setting by setting: (dose: 3.75 mg/kg/injection, schedule: Q01DX005 (ip), vehicle: Klucel (hydroxypropylcellulose) (HPC)) 93 % of control; (dose: 7.5 mg/kg/injection, schedule: Q01DX005 (ip), vehicle: Klucel (hydroxypropylcellulose) (HPC)) 94 % of control; (dose: 15.0 mg/kg/injection, schedule: Q01DX005 (ip), vehicle: Klucel (hydroxypropylcellulose) (HPC)) 89 % of control; under setting [15], 87 % of control.
Regarding `CNC(=O)OCc1nc(SC)n(-c2ccccc2)c1COC(=O)NC`, the T/C runs as follows: (dose: 12.5 mg/kg/injection, schedule: Q01DX005 (ip), vehicle: distilled water + Tween-80) 99 % of control; (dose: 25.0 mg/kg/injection, schedule: Q01DX005 (ip), vehicle: distilled water + Tween-80) 101 % of control; under setting [13], 99 % of control and 102 % of control and 92 % of control; under setting [14], 101 % of control and 106 % of control and 108 % of control; (dose: 200.0 mg/kg/injection, schedule: Q01DX005 (ip), vehicle: distilled water + Tween-80) 113 % of control; (dose: 400.0 mg/kg/injection, schedule: Q01DX005 (ip), vehicle: distilled water + Tween-80) 99 % of control.
On to `NS(=O)(=O)c1ccc(C(=O)O)cc1`, for which the T/C (dose: 25.0 mg/kg/injection, schedule: Q04DX003 (ip), vehicle: saline with Tween-80) is 101 % of control; the T/C (dose: 50.0 mg/kg/injection, schedule: Q04DX003 (ip), vehicle: saline with Tween-80) was 94 % of control; the T/C under setting [8] was 100 % of control; the T/C under setting [9] is 103 % of control.
As to `CC(C)(C)Nc1nc2ccccc2c(=O)o1`, the T/C is, setting by setting: under setting [10], 101 % of control; under setting [11], 106 % of control; under setting [12], 116 % of control.
With `O=C1C2=C(Nc3cc(Cl)ccc3N2)OC1c1ccccc1Cl` (stereo not given), the T/C (dose: 60.0 mg/kg/injection, schedule: Q01DX005 (ip), vehicle: Klucel (hydroxypropylcellulose) (HPC)) is 95 % of control; the T/C (dose: 120.0 mg/kg/injection, schedule: Q01DX005 (ip), vehicle: Klucel (hydroxypropylcellulose) (HPC)) is 94 % of control; the T/C under setting [15] was 104 % of control.
